Values of other authors, collected in patent US20190160002A1, “PROCESS FOR PREPARING STERILE ARIPIPRAZOLE FORMULATION” (Mylan Laboratories Ltd., priority 2016, published 2019).

## O=C1CCc2ccc(OCCCCN3CCN(c4cccc(Cl)c4Cl)CC3)cc2N1 [aripiprazole monohydrate]
Dry heat sterilization
  Effect of dry heat sterilization: melted
gamma-ray and electron beam
  Effect of gamma-ray and electron beam sterilization: discolored and decomposed
Particles in aqueous suspension, steam heat sterilization
  Effect of steam heat sterilization on particles: tend to agglomerate
